Like-named read-outs stand apart in the source and are kept apart here.
Assay: Fluocinolone acetonide concentration in dog synovial fluid after intraarticular implants in knee joints
Assay type: in vivo, Canis familiaris
Details: dog, other: bilateral intraarticular implants (knee joints)
Protocol: Devices were administered once via bilateral intraarticular implants. The day of surgical implantation was Day 1. The devices were made as follows. Fluocinolone acetonide, USP, was compressed into 1.5 mm diameter tablets using standard pharmaceutical methods. The tablets were placed into preformed cups made from silicone elastomer. Cup size was dependent on dosage form. These cups were attached to […] (PVA) suture tabs. For the 2 mg implants, the surface of the tablet not coated with silicone was attached to a suture tab with PVA solution. For the […] implant, a side of the silicone cup was attached perpendicular to the suture tab. Finally, the assemblies were dip coated with PVA. The implants were then cured at 135° C. for 5 hours and placed within the primary package. The product in the primary package was placed in a self-adhesive pouch and sterilized using gamma irradiation. Surgery was performed on both knee joints of all animals. A lateral skin incision was made to expose the fascia lata overlying the vastus lateralis cranially and the biceps fernoris caudally. The joint was exposed through an incision in the lateral intermuscular septum to expose the femur by anterior retraction of the vastus lateralis and posterior retraction of the biceps femoris. Care was taken not to disrupt the tendon of origin of the long digital extensor as it originates from the lateral femoral condyle. The joint capsule was opened, the patella luxated medially, and the joint was held in full flexion. 2 mg devices were placed in the right leg and 18 mg implants were placed in the left leg. The implants were placed within the anterior intercondyloid fossa, immediately lateral to the origin of the posterior cruciate ligament. The bone may be slightly deepened at this location with a curette to accept the implant. The implant was sutured in place to the posterior cruciate ligament. The joint capsule was closed with 3/0 PDS in a simple interrupted fashion. The retinaculum and intermuscular septum were closed with 2/0 Vicryl in a continuous pattern. The fascia lata were closed with 2/0 PDS, and the subcutaneous tissues with 3/0 PDS, both in a simple continuous pattern. The skin was closed with 3/0 Vicryl in a subcuticular pattern. After anesthesia (acepromazine, 0.2 mg/kg. IM followed by sodium pentobarbital, 22 mg/kg, IV, to effect), an attempt was made to obtain synovial fluid. Syriovial fluid samples were immediately stored at ≦−70° C. in polypropylene tubes until transferred.

concentration at 29 day (synovial fluid (left knee joint), 18 mg, Left leg (18 mg implants), Dog 2001, Day 29, read-out: Assayed Concentrations of Fluocinolone Acetonide in Dog Synovial Fluid Samples (Left Leg)): 57.8 ng/mL | concentration at 3 day (synovial fluid (left knee joint), 18 mg, Left leg (18 mg implants), Dog 2002, Day 3, read-out: Assayed Concentrations of Fluocinolone Acetonide in Dog Synovial Fluid Samples (Left Leg)): 193 ng/mL | concentration at 7 day (synovial fluid (left knee joint), 18 mg, Left leg (18 mg implants), Dog 2002, Day 7, read-out: Assayed Concentrations of Fluocinolone Acetonide in Dog Synovial Fluid Samples (Left Leg)): 279 ng/mL | concentration at 21 day (synovial fluid (left knee joint), 18 mg, Left leg (18 mg implants), Dog 2002, Day 21, read-out: Assayed Concentrations of Fluocinolone Acetonide in Dog Synovial Fluid Samples (Left Leg)): 393 ng/mL | concentration at 29 day (synovial fluid (left knee joint), 18 mg, Left leg (18 mg implants), Dog 2002, Day 29, read-out: Assayed Concentrations of Fluocinolone Acetonide in Dog Synovial Fluid Samples (Left Leg)): 956 ng/mL | concentration at 3 day (synovial fluid (left knee joint), 18 mg, Left leg (18 mg implants), Dog 3001, Day 3, read-out: Assayed Concentrations of Fluocinolone Acetonide in Dog Synovial Fluid Samples (Left Leg)): 788 ng/mL | concentration at 7 day (synovial fluid (left knee joint), 18 mg, Left leg (18 mg implants), Dog 3001, Day 7, read-out: Assayed Concentrations of Fluocinolone Acetonide in Dog Synovial Fluid Samples (Left Leg)): 35300 ng/mL | concentration at 21 day (synovial fluid (left knee joint), 18 mg, Left leg (18 mg implants), Dog 3001, Day 21, read-out: Assayed Concentrations of Fluocinolone Acetonide in Dog Synovial Fluid Samples (Left Leg)): 5180 ng/mL | concentration at 56 day (synovial fluid (left knee joint), 18 mg, Left leg (18 mg implants), Dog 3001, Day 56, read-out: Assayed Concentrations of Fluocinolone Acetonide in Dog Synovial Fluid Samples (Left Leg)): 36.9 ng/mL | concentration at 3 day (synovial fluid (left knee joint), 18 mg, Left leg (18 mg implants), Dog 3002, Day 3, read-out: Assayed Concentrations of Fluocinolone Acetonide in Dog Synovial Fluid Samples (Left Leg)): 207 ng/mL | concentration at 7 day (synovial fluid (left knee joint), 18 mg, Left leg (18 mg implants), Dog 3002, Day 7, read-out: Assayed Concentrations of Fluocinolone Acetonide in Dog Synovial Fluid Samples (Left Leg)): 251 ng/mL | concentration at 21 day (synovial fluid (left knee joint), 18 mg, Left leg (18 mg implants), Dog 3002, Day 21, read-out: Assayed Concentrations of Fluocinolone Acetonide in Dog Synovial Fluid Samples (Left Leg)): 276 ng/mL | concentration at 29 day (synovial fluid (left knee joint), 18 mg, Left leg (18 mg implants), Dog 3002, Day 29, read-out: Assayed Concentrations of Fluocinolone Acetonide in Dog Synovial Fluid Samples (Left Leg)): 210 ng/mL | concentration at 3 day (synovial fluid (right knee joint), 2 mg, Right leg (2 mg devices), Dog 1001, Day 3, read-out: Assayed Concentrations of Fluocinolone Acetonide in Dog Synovial Fluid Samples (Right Leg)): 52 ng/mL | concentration at 7 day (synovial fluid (right knee joint), 2 mg, Right leg (2 mg devices), Dog 1001, Day 7, read-out: Assayed Concentrations of Fluocinolone Acetonide in Dog Synovial Fluid Samples (Right Leg)): 62.4 ng/mL | concentration at 56 day (synovial fluid (right knee joint), 2 mg, Right leg (2 mg devices), Dog 1001, Day 56, read-out: Assayed Concentrations of Fluocinolone Acetonide in Dog Synovial Fluid Samples (Right Leg)): 19.3 ng/mL | concentration at 3 day (synovial fluid (right knee joint), 2 mg, Right leg (2 mg devices), Dog 1002, Day 3, read-out: Assayed Concentrations of Fluocinolone Acetonide in Dog Synovial Fluid Samples (Right Leg)): 36.6 ng/mL | concentration at 3 day (synovial fluid (right knee joint), 2 mg, Right leg (2 mg devices), Dog 2001, Day 3, read-out: Assayed Concentrations of Fluocinolone Acetonide in Dog Synovial Fluid Samples (Right Leg)): 600 ng/mL | concentration at 3 day (synovial fluid (right knee joint), 2 mg, Right leg (2 mg devices), Dog 2002, Day 3, read-out: Assayed Concentrations of Fluocinolone Acetonide in Dog Synovial Fluid Samples (Right Leg)): 24.4 ng/mL | concentration at 3 day (synovial fluid (right knee joint), 2 mg, Right leg (2 mg devices), Dog 3001, Day 3, read-out: Assayed Concentrations of Fluocinolone Acetonide in Dog Synovial Fluid Samples (Right Leg)): 57.9 ng/mL | concentration at 29 day (synovial fluid (right knee joint), 2 mg, Right leg (2 mg devices), Dog 3001, Day 29, read-out: Assayed Concentrations of Fluocinolone Acetonide in Dog Synovial Fluid Samples (Right Leg)): 16.4 ng/mL | concentration at 3 day (synovial fluid (right knee joint), 2 mg, Right leg (2 mg devices), Dog 3002, Day 3, read-out: Assayed Concentrations of Fluocinolone Acetonide in Dog Synovial Fluid Samples (Right Leg)): 40.7 ng/mL | concentration at 29 day (synovial fluid (right knee joint), 2 mg, Right leg (2 mg devices), Dog 3002, Day 29, read-out: Assayed Concentrations of Fluocinolone Acetonide in Dog Synovial Fluid Samples (Right Leg)): 7.86 ng/mL
SMILES: CC1(C)O[C@@H]2C[C@H]3[C@@H]4C[C@H](F)C5=CC(=O)C=C[C@]5(C)[C@@]4(F)[C@@H](O)C[C@]3(C)[C@]2(C(=O)CO)O1 [Fluocinolone Acetonide]

— patent publication US6936270B2, “Device and method for treating conditions of a joint” (Control Delivery Systems, Inc., priority 2000, dated 2005)
